Read-outs that look alike come from different tables or passages of the source.
Key:
[1] = Cytotoxicity on uninfected HeLa cells (MTT, 48 h); type: cell-based; conditions: human, read-out: CC50 (reduce cell viability by 50%), ADV7 host cells
Procedure: (§1) Human laryngeal carcinoma cells (Hep-2) and human cervical carcinoma cells (HeLa) were maintained in DMEM (Gibco) supplemented with 10% fetal bovine serum (FBS; Gibco), 100 U/mL penicillin and streptomycin, and 2 mM L-glutamine.
(§2) The antiviral activities of compounds against CVB3 and ADV7 were determined by measuring their inhibition of virus-induced CPEs in acutely infected Hep-2 and HeLa cells, respectively. Confluent cell monolayers in 96-well plates were infected with 100 TCID50 of CVB3 or ADV7 for 1.5 h at 37 °C, inocula were aspirated, and the cells then were incubated with various concentrations of compounds at 37 °C, 5% CO2, for 48 h. CPEs were observed by microscopy and the viability of cells was determined using MTT assays. The concentrations of test compounds required to achieve 50% protection from virus-induced cytopathogenicity (EC50 values) were determined. Adverse effects of tested compounds on host cells were also assessed using the MTT method after exposing uninfected cells to various concentrations of test compounds for 48 h at 37 °C. The CC50 values of compounds were calculated using SPSS software and selectivity indices were the ratio of CC50:EC50. Each experiment was performed in triplicate and at least three times, independently.

[2] = system: ADV7; experiment: Inhibition of ADV7-induced cytopathic effects in HeLa cells (MTT); type: cell-based, adenovirus type 7; conditions: for EC50 / inhibition at 160 µM: Human mastadenovirus B; for EC50: 100 TCID50 ADV7, 48 h, MTT, read-out: EC50 (50% protection from virus-induced cytopathogenicity), ADV7; for protection against ADV7-induced CPEs (microscopy): 120 μM W-9, 160 μM W-13, 160 μM W-15; for inhibition at 160 µM: read-out: inhibition of ADV7 infections
Procedure: (§3) Figure 1 Antiviral activities of novel 2-benzoxyl-phenylpyridine derivatives against CVB3 and ADV7. […] Hep-2 or HeLa cells were infected with 100 TCID50 of CVB3 or ADV7 for 1.5 h at 37 °C. Then, the inocula were aspirated and the cells were incubated with various concentrations of test compounds for 48 h. Cell viability was determined using the MTT assay. (b) Images showing the morphology of Hep-2 and HeLa cells treated with 120 μM W-9, 160 μM W-13, or 160 μM W-15 (magnification, 20×).
as §2

[3] = system: CVB3; experiment: Inhibition of CVB3-induced cytopathic effects in Hep-2 cells (MTT); type: cell-based, Coxsackievirus B3; conditions: for EC50 / inhibition at 160 µM: Enterovirus B; for EC50: 100 TCID50 CVB3, 48 h, MTT, read-out: EC50 (50% protection from virus-induced cytopathogenicity), CVB3; for protection against CVB3-induced CPEs (microscopy): 120 μM W-9, 160 μM W-13, 160 μM W-15; for inhibition at 160 µM: CVB3, at 160 μM, read-out: inhibition of CVB3 infections
Procedure: as §3, §2

[4] = system: CVB3; experiment: Direct inactivation of virions (viricidal test); type: cell-based, Coxsackievirus B3; conditions: 10^4 TCID50 CVB3, 2 h at 37 °C; 120 μM W-9, 160 μM W-13, W-15, ribavirin
Procedure: To determine whether these 2-benzoxyl-phenylpyridine derivatives inactivated virions directly, 10^4 TCID50 of CVB3 suspension was incubated with 120 μM W-9, 160 μM W-13, 160 μM W-15, or 160 μM ribavirin for 2 h at 37 °C. Subsequently, viral titers were measured by inoculating 100-fold dilutions of the mixtures, beyond the effective concentrations of the compounds, into the host cells. TCID50 values were calculated by the Reed–Muench method on day 2 post-inoculation.

[5] = Cytotoxicity on uninfected Hep-2 cells (MTT, 48 h); type: cell-based; conditions: human, read-out: CC50 (reduce cell viability by 50%), CVB3 host cells
Procedure: as §1, §2

[6] = system: CVB3; experiment: Analysis of effective stage (prevention, mixture, treatment modes); type: cell-based, Coxsackievirus B3; conditions: Hep-2 cells, cell viability after 48 h; for inhibition of CVB3, compound added just before or during infection: prevention and mixture modes; for inhibitory effect against CVB3, compound added post infection: treatment mode
Procedure: The mechanisms by which W9, W13, and W15 inhibit CVB3 infection were further investigated by three different approaches, using ribavirin as a positive control. Antiviral effects against CVB3 were detected by measuring cell viability after 48 h of infection when cells were treated with compounds W9, W13, and W15 before, simultaneously, or after inoculation with CVB3 (100 TCID50).
Figure 3 Analysis of the modes of action of W9, W13, and W15 against CVB3. (a) Analysis of effective stage. The antiviral effects of test compounds against CVB3 were detected by measuring cell viability after 48 h of infection when cells were treated with W9, W13, or W15 before, simultaneously, or after inoculation with CVB3 (100 TCID50). (b) Analysis of the effects on CVB3 adsorption. Mock-, 120 μM W-9-, 160 μM W-13-, 160 μM W-15-, or 160 μM ribavirin-treated CVB3 (10^6 TCID50) was inoculated onto Hep-2 cells and adsorbed for 2 h. Infected cells were then harvested and subjected to virus titration, using the TCID50 method. (c) The effects of test compounds on CVB3 release from Hep-2 cells. Hep-2 cells infected with 100 TCID50 of CVB3 were incubated with test compounds for 12 h, then cells and culture supernatants (intra- and extracellular) analyzed for virus yield, separately or together. Mock, no infection; VC, virus control. Values represent the means ± SDs of three independent experiments. * p < 0.05; ** p < 0.01, compared with the virus control group.
To identify the step in the life cycle of CVB3 that was affected by the compounds, various concentrations of W9, W13, and W15 were added to Hep-2 cells, and the following three treatment procedures conducted: (i) To evaluate preventive effects (prevention mode of action), various concentrations of compounds were added to cells for 2 h at 37 °C, followed by washing with MM before virus infection; (ii) To analyze for inhibition of adsorption (mixture mode of action), a mixture of compound and virus was added to cells for 2 h at 37 °C, followed by washing with MM; (iii) To assess therapeutic effects (treatment mode of action), cells were first infected for 2 h at 37 °C, followed by washing with MM, addition of the compounds, and incubation for the duration of the experiment. For all procedures, cell viability was estimated after 48 h of infection, using MTT assays.

SMILES	CC50 at 48 h [1]	SI (CC50/EC50), ADV7 [2]	maximum inhibition of ADV7 [2]	EC50 [2]	SI (CC50/EC50), CVB3 [3]	maximum inhibition of CVB3 [3]	EC50 [3]	virus titer after incubating CVB3 suspension with compound (viricidal activity) [4]	CC50 at 48 h [5]	inhibition of CVB3, compound added just before or during infection [6]	inhibitory effect against CVB3, compound added post infection [6]	inhibitory activity against ADV7 infection (in words) [2]	protection against ADV7-induced CPEs (microscopy) [2]	inhibition at 160 µM [2]	inhibitory activity against CVB3 infection (in words) [3]	protection against CVB3-induced CPEs (microscopy) [3]	inhibition at 160 µM [3]	SI (CC50/EC50), ADV7 ([2]; listed as W-13)
NC(=O)c1ncn([C@@H]2O[C@H](CO)[C@@H](O)[C@H]2O)n1 [Ribavirin, reference compound]	807 µM	7.1	72.4%	114 µM	8.3	63.0%	101 µM	No significant difference	836 µM									
O=C(Oc1cc(Cl)ccc1-c1ccccn1)c1ccccc1 [W9]	265 ± 28.1 µM	9.8		27.1 ± 9 µM	6.0		24.6 ± 8.7 µM	No significant difference	148 ± 11.6 µM	no significant inhibition	most powerful inhibitory effects	significant inhibitory activities	almost complete protection	81.4%	significant inhibitory activities	almost complete protection	73%	
CC(=O)Oc1ccc(-c2ccccn2)c(OC(=O)c2ccccc2)c1 [W15]	795 ± 33.8 µM	12.2		65.2 ± 21.6 µM	6.5		69.7 ± 15 µM	No significant difference	451 ± 32.4 µM	no significant inhibition	most powerful inhibitory effects	significant inhibitory activities	almost complete protection	89.4%	significant inhibitory activities	almost complete protection	90%	
Cc1ccc(OC(=O)C(C)(C)C)c(-c2ccccn2)c1 [W13]	> 372 µM	>10		36.4 ± 16.4 µM	10.2		41.6 ± 11.5 µM	No significant difference	424 ± 26.8 µM	no significant inhibition	most powerful inhibitory effects	significant inhibitory activities	almost complete protection	83.9%	significant inhibitory activities	almost complete protection	92.8%	> 10

Reference: publication PMC7144376, “Antiviral Effects of Novel 2-Benzoxyl-Phenylpyridine Derivatives” (Molecules, 2020)
